Assay results: paper PMC12869562 (Research Square, 2026)
No end group written: not given here.

Assay: In vitro plasma stability
Assay type: in vitro ADME, mouse (C57BL/6)
Details: C57BL/6, mouse, read-out: half-life t1/2 (in vitro plasma) (converted)
Protocol: Each aliquot (50 μl) was mixed with 150 μl methanol, vortexed, spun, removed the supernatant and reconstituted the pellet with 150 μl 10% formic acid in water. The sample was vortexed and spun and a 100 μl aliquot was taken, diluted 1:1 with 10 mM ammonium bicarbonate, and analyzed by LC-MS/MS. Using the remaining vs. time dataset, we performed a first-order decay analysis by fitting a linear regression to the natural log-transformed percent remaining values (excluding 0% and t = 0 anchor point) to plot the graph.

- half-life at 5 μg/ml: 334 min
Sequence: SSMKLSFRARAYGFRGPGPQL [CST, Catestatin]
